Laboratory results from patent publication US7893074B2, “2, 4-pyrimidinediamines useful in the treatment of neoplastic diseases, inflammatory and immune system disorders” (Novartis AG, priority 2003, dated 2011).
Read-outs that look alike come from different tables or passages of the source.

Tests used:
[1] = target: Focal Adhesion Kinase (FAK) (Homo sapiens, UniProt Q05397); test: FAK assay system (Focal Adhesion Kinase inhibition); format: biochemical; details: read-out: FAK IC50
[2] = tested on: Mouse mammary carcinoma 4T1 cells; test: Anchorage-independent tumor cell growth assay; format: cell-based
Procedure: Cells are cultured for 2 h and inhibitors are added at various concentrations in a final concentration of 0.1% DMSO. After 48 h, cell growth is assayed with the cell counting kit-8 (Wako Pure Chemical), which uses a water soluble tetrazolium salt WST8. Twenty μL of the reagent is added into each well and cells are further cultured for 2 h. The optical density is measured at 450 nm.

FAK = FAK (Mus musculus, UniProt P34152); test: Phos IC50 (phosphorylation); format: cell-based
Chain of FAK (P34152 2-1052): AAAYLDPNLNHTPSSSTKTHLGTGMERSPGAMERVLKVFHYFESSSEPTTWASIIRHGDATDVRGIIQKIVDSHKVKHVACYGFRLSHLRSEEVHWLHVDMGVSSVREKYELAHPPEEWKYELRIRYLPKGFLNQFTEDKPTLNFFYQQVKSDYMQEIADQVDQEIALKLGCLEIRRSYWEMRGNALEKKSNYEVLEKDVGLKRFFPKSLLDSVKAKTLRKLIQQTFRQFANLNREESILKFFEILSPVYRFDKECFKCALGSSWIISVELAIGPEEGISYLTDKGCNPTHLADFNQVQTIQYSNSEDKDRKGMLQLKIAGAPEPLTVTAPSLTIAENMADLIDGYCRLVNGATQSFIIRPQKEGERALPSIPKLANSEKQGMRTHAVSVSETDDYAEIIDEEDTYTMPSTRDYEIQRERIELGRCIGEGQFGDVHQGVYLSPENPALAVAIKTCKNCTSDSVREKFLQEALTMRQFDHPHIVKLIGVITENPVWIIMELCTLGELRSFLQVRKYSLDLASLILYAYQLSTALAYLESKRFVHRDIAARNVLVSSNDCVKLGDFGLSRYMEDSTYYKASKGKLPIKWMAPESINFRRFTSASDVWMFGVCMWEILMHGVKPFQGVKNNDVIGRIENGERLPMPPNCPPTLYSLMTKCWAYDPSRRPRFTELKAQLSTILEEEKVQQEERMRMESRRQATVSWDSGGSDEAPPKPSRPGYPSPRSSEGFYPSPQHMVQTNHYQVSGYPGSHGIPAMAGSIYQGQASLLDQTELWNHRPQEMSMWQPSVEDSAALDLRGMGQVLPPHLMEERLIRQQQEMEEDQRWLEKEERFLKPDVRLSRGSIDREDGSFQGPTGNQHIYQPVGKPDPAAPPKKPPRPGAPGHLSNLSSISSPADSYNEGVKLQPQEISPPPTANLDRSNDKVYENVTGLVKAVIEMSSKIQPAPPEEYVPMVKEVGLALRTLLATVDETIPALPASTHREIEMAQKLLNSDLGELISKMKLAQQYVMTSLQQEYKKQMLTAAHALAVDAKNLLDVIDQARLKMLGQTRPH

Chain of Focal Adhesion Kinase (FAK) (Q05397 384-706): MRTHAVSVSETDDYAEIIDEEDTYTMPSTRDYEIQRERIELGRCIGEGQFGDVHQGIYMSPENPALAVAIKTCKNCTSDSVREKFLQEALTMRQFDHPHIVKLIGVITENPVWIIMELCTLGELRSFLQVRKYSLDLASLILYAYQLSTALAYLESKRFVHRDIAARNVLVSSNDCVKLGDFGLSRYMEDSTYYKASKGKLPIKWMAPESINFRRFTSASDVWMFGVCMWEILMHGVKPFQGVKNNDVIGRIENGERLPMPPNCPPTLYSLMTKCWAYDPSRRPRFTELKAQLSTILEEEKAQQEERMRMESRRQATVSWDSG

IC50 [1] [nM] | IC50 ([2]; Mus musculus, 4T1) [nM] | IC50 (FAK) [nM] | IC50 [2] [nM] | Compound
14 | 470 | 60 | – | CCS(=O)(=O)c1ccccc1Nc1nc(Nc2ccc(N3CCOCC3)cc2OC)ncc1Cl [Example 27-1]
3.3 | 1100 | 700 | – | CCC(CC)S(=O)(=O)c1ccccc1Nc1nc(Nc2ccc(N3CCC(N4CCCCC4)CC3)cc2OC)ncc1Cl [Example 29-2]
1.9 | 590 | > 10000 | – | CCC(CC)NS(=O)(=O)c1ccccc1Nc1nc(Nc2ccc(OCC3CCCN(C)C3)cc2OC)ncc1Cl (stereo not drawn) [Example 23-5]
4.2 | 360 | 500 | – | CCS(=O)(=O)c1ccccc1Nc1nc(Nc2ccc(N3CCC(N4CCN(C)CC4)CC3)cc2OC)ncc1Cl [Example 27-9]
< 1 | 260 | 310 | – | CCCS(=O)(=O)c1ccccc1Nc1nc(Nc2ccc(N3CCC(N4CCCC4)CC3)cc2OC)ncc1Cl [Example 26-29]
22 | 890 | 200 | – | COc1cc(N2CCOCC2)ccc1Nc1ncc(Cl)c(Nc2ccccc2S(=O)(=O)C2CC2)n1 [Example 30-1]
2.3 | 110 | 900 | – | COc1cc(OC)c(OC)cc1Nc1ncc(Cl)c(Nc2ccccc2S(=O)(=O)C(C)C)n1 [Example 28-30]
8.5 | > 10000 | 330 | – | CCC(C)NS(=O)(=O)c1ccccc1Nc1nc(Nc2ccc(F)cc2OC)ncc1Cl (stereo not drawn) [Example 21-2]
1.3 | 230 | 100 | – | CNC1CCN(c2ccc(Nc3ncc(Cl)c(Nc4ccccc4S(=O)(=O)C(C)C)n3)c(OC)c2)C1 (stereo not drawn) [Example 28-21]
6.1 | 300 | 100 | – | CC(C)NS(=O)(=O)c1ccccc1Nc1nc(Nc2ccc(OCCN3CCOCC3)cc2F)ncc1Cl [Example 19-26]
8.2 | 300 | 40 | – | CCS(=O)(=O)c1ccccc1Nc1nc(Nc2ccc(N3CCN(C(C)=O)CC3)cc2OC)ncc1Cl [Example 27-5]
19 | 680 | 500 | – | COc1cc(N2CCCC(C(N)=O)C2)ccc1Nc1ncc(Cl)c(Nc2ccccc2S(=O)(=O)C2CC2)n1 (stereo not drawn) [Example 30-3]
9 | 2000 | 320 | – | CCCS(=O)(=O)c1ccccc1Nc1nc(Nc2ccc(NCCN3CCOCC3)cc2OC)ncc1Cl [Example 26-16]
17 | 560 | 600 | – | Cc1cc(N2CCOCC2)ccc1Nc1ncc(Cl)c(Nc2ccccc2S(=O)(=O)C(C)C)n1 [Example 28-6]
2.5 | 1100 | 300 | – | COc1cc(N2CCC(NC(C)=O)C2)ccc1Nc1ncc(Cl)c(Nc2ccccc2S(=O)(=O)NC(C)C)n1 (stereo not drawn) [Example 19-13]
2.1 | – | 500 | 1520 | CCCS(=O)(=O)c1ccccc1Nc1nc(Nc2ccc(N3CCC(O)C3)cc2OC)ncc1Cl (stereo not drawn) [Example 26-28]

IC50 [1] [nM] | IC50 ([2]; Mus musculus, 4T1) [nM] | IC50 (FAK) [nM] | IC50 [2] [nM] | Compound
1 | 170 | > 10000 | – | COc1cc(OCC2CCCCN2C)ccc1Nc1ncc(Cl)c(Nc2ccccc2S(=O)(=O)NC(C)C)n1 (stereo not drawn) [Example 19-17]
9.3 | 750 | 600 | – | CCS(=O)(=O)c1ccccc1Nc1nc(Nc2ccc(N3CCC[C@@H](C(N)=O)C3)cc2OC)ncc1Cl [Example 27-8]
2 | 10 | 300 | – | CNS(=O)(=O)c1ccccc1Nc1nc(Nc2cccc3c2ccn3CCCN2CCN(C)CC2)ncc1Cl [Example 20-9]
13 | 120 | 1000 | – | CNS(=O)(=O)c1ccccc1Nc1nc(Nc2cc(N3CCN(C(C)=O)CC3)ccc2OC)ncc1Cl [Example 20-34]
44 | 4000 | > 10000 | – | CNC(=O)c1cc(N2CCOCC2)ccc1Nc1nc(Nc2ccc(F)cc2OC)ncc1Cl [Example 16-1]
1.6 | 440 | 200 | – | CCCS(=O)(=O)c1ccccc1Nc1nc(Nc2ccc(N3CCC[C@@H](C(N)=O)C3)cc2OC)ncc1Cl [Example 26-13]
3 | 1440 | 100 | – | COc1cc(N2CCN(C(C)C)CC2)ccc1Nc1ncc(Cl)c(Nc2ccccc2S(=O)(=O)C(C)C)n1 [Example 28-14]
2 | 20 | 100 | – | CNS(=O)(=O)c1ccccc1Nc1nc(Nc2cccc3c2ccn3CCCN2CCOCC2)ncc1Cl [Example 20-10]
9.2 | 790 | 430 | – | CCCS(=O)(=O)c1ccccc1Nc1nc(Nc2ccc(C(=O)N3CCN(C(C)=O)CC3)cc2OC)ncc1Cl [Example 26-19]
84 | 1710 | > 10000 | – | COc1c(Nc2ncc(Cl)c(Nc3ccccc3S(=O)(=O)NC(C)C)n2)ccc(OC2CCN(C)CC2)c1F [Example 19-21]
14 | – | 400 | 970 | CNS(=O)(=O)c1ccccc1Nc1nc(Nc2ccc(N3CCCC(C(N)=O)C3)cc2OC)ncc1Cl (stereo not drawn) [Example 20-15]
6.8 | 1430 | > 10000 | – | CNC(=O)c1cc(N2CCN(C)CC2)ccc1Nc1nc(Nc2ccc(N3CCOCC3)cc2OC)ncc1Cl [Example 35-1]
26 | 400 | 2000 | – | CNS(=O)(=O)c1ccccc1Nc1nc(Nc2cc(N3CCOCC3)ccc2OC)ncc1Cl [Example 20-11]
< 1 | – | 600 | 730 | CCCS(=O)(=O)c1ccccc1Nc1nc(Nc2ccc(N3CCC(NC)C3)cc2OC)ncc1Cl (stereo not drawn) [Example 26-25]
1.5 | 400 | 300 | – | COc1cc(N2CCC(N3CCCCC3)CC2)ccc1Nc1ncc(Cl)c(Nc2ccccc2S(=O)(=O)NC(C)C)n1 [Example 19-27]
5.1 | 1100 | 500 | – | CCS(=O)(=O)c1ccccc1Nc1nc(Nc2ccc(N3CCC(N4CCCCC4)CC3)cc2OC)ncc1Cl [Example 27-2]

Further lines, the molecule ahead of its results:

Compound | IC50 [1] [nM] | IC50 ([2]; Mus musculus, 4T1) [nM] | IC50 (FAK) [nM] | IC50 [2] [nM]
CNS(=O)(=O)c1ccccc1Nc1nc(Nc2cc(OC)ccc2OCCO)ncc1Br [Example 3-60] | 90 | 2000 | 930 | –
CNC(=O)c1ccccc1Nc1nc(Nc2ccc(N3CCOCC3)c3c2ccn3C)ncc1Cl [Example 7-29] | 57 | 480 | 2000 | –
CCNC(=O)c1cc(F)ccc1Nc1nc(Nc2ccc(N3CCOCC3)cc2OC)ncc1Cl [Example 14-5] | 37 | 1000 | > 10000 | –
CNC(=O)c1ccccc1Nc1nc(Nc2ccc(N3CCC(OCCOC)CC3)cc2OC)ncc1Cl [Example 7-10] | 6.6 | 980 | 1000 | –
CNS(=O)(=O)c1ccccc1Nc1nc(Nc2ccc(F)cc2Cl)ncc1Br [Example 3-37] | 39 | 2600 | 1100 | –
CNS(=O)(=O)c1ccccc1Nc1nc(Nc2cc(N3CCN(C)CC3)ccc2OC)ncc1Br [Example 3-84] | 10 | 80 | 1000 | –
CNC(=O)c1ccccc1Nc1nc(Nc2ccc(OCCN3CCN(C)CC3)cc2OC)ncc1Cl [Example 7-21] | 3.3 | 460 | > 10000 | –
CNc1ccccc1Nc1ncc(Br)c(Nc2ccccc2S(=O)(=O)NC)n1 [Example 3-8] | 74 | 6000 | 300 | –
CNS(=O)(=O)c1ccccc1Nc1nc(Nc2ccc(OCCCN3CCOCC3)cc2C)ncc1Br [Example 3-71] | 11 | 80 | 50 | –
CNS(=O)(=O)c1ccccc1Nc1nc(Nc2cccc(OC)c2OC)ncc1Br [Example 3-14] | 54 | 5000 | 400 | –
CNC(=O)c1c(C)cccc1Nc1nc(Nc2ccc(OC3CCN(C)CC3)cc2OC)ncc1Cl [Example 10-1] | 39 | 440 | 1000 | –
CNC(=O)c1ccccc1Nc1nc(Nc2ccc(OCC3CCN(C)CC3)cc2OC)ncc1Cl [Example 7-20] | 2.5 | 110 | > 10000 | –
CCOCCOC1CCN(c2ccc(Nc3ncc(Cl)c(Nc4ccccc4C(=O)NC)n3)c(OC)c2)CC1 [Example 7-9] | 8.2 | 850 | 1000 | –
CNS(=O)(=O)c1ccccc1Nc1nc(Nc2cc(C(C)C)ccc2C)ncc1Br [Example 3-18] | 130 | 9000 | 1500 | –
CNC(=O)c1ccccc1Nc1nc(Nc2ccc(N3CCC(O)CC3)cc2OC)ncc1Cl [Example 7-8] | 8.7 | 1000 | 800 | –
CNS(=O)(=O)c1ccccc1Nc1nc(Nc2cc(C(=O)N3CCNCC3)ccc2C)ncc1Br [Example 3-24] | 64 | 5000 | 3500 | –
CNS(=O)(=O)c1ccccc1Nc1nc(Nc2cccc3c2OC(F)(F)O3)ncc1Br [Example 3-1] | 44 | > 10000 | 340 | –
CNC(=O)c1ccccc1Nc1nc(Nc2ccc(OCCN3CCOCC3)cc2OC)ncc1Cl [Example 7-4] | 5.2 | 290 | 1000 | –
COc1cc(N2CCOCC2)ccc1Nc1ncc(Cl)c(Nc2ccccc2S(=O)(=O)N2CCOCC2)n1 [Example 14-7] | 7.5 | 1400 | 200 | –
CCNC(=O)c1ccccc1Nc1nc(Nc2cc(N3CCC(N4CCCCC4)CC3)ccc2OC)ncc1Cl [Example 9-7] | 17 | 260 | > 10000 | –
CNS(=O)(=O)c1ccccc1Nc1nc(Nc2cc(N3CCOCC3)ccc2C)ncc1Br [Example 3-20] | 16 | 300 | 220 | –
